Assays:
[1] = system: NCI-H1975 cells; assay: cells; type: cell-based; conditions: Homo sapiens
Protocol: (§1) NSCLC cells NCI-H292 (EGFR wild type (wt)), HCC827 (EGFR del E746-A750), and NCI-H1975 (EGFR L858R/T790M) were all purchased from ATCC. NCI-H292 and NCI-H1975 were cultured in RPMI1640 media with stable L-glutamine (Millipore® Sigma), 10% FBS (Millipore® Sigma) and 1 mM sodium pyruvate (Gibco®, Thermo Fisher Scientific®, or Millipore® Sigma). HCC827 cells were cultured in RPMI1640 media with stable 2 mM L-glutamine, 2.5 g/L D-(+)-glucose solution (Millipore® Sigma), 10 mM HEPES (Millipore® Sigma), 10% FBS, and 1 mM sodium pyruvate (Gibco®, Thermo Fisher Scientific®, or Millipore® Sigma).
(§2) For cytotoxicity testing, cell monolayers were washed once with Gibco® D-PBS (Thermo Fisher Scientific®) and detached from the cell culture flask using Accutase® (Millipore® Sigma). Viable cells were counted with the automated cell counter LUNA-FL™ (Logos Biosystems) using 0.4% Gibco® trypan blue solution (Thermo Fisher Scientific®). A total of 625 cells (NCI-H292), 1250 cells (NCI-H1975) or 3000 cells (HCC827) were plated in 90 μl cell culture medium per well of a 96-well black/clear flat bottom TC-treated imaging microplate (Corning®) and cultured overnight. A ten-fold starting concentration of ADCs or compounds and a respective serial dilution (1:4) were prepared in cell culture medium briefly before use. Wells were supplied with 10 μl ADC or compound solution. Treatment was performed in technical triplicates. […] Untreated control cells for ADCs or EGFR tyrosine kinase inhibitors (TKIs) received a corresponding amount of dilution media or dimethylsulfoxide (DMSO; Millipore Sigma), respectively. For subsequent cell viability measurement, 100 μl Cell Titer-Glo® reagent (Promega™ Corp, Madison, WI, USA) was pipetted in each well, and plates were further processed according the manufacturer's instructions.

[2] = system: NCI-H292 cells; assay: cells; type: cell-based; conditions: Homo sapiens
Protocol: as §1, §2

Structure (SMILES): C=CC(=O)Nc1cc(Nc2nccc(-c3cn(C)c4ccccc34)n2)c(OC)cc1N(C)CCN(C)C [Molecule 15, osimertinib]
- IC50 ([2]; NCI-H292, […], read-out: Geomean IC50): 570 nM
- Emax ([2]; NCI-H292, read-out: geomean span (% efficacy)): 100%
